The text below walks through data of PubChem BioAssay (NCI).

What all share (assay): inhibition of tumour cell growth, NCI panel, 48 h
For assay [1], the system named is A498 renal.
Assay [2] deals with EKVX NSCLC.
The subject of assay [3] is IGROV1 ovarian.
Assay [4] has as its system MCF7 breast.
Assay [5] has as its system NCI-H460 lung.
In assay [6] the test system is OVCAR-3 ovarian.
The test system of assay [7] is OVCAR-5 ovarian.
The subject of assay [8] is SF-539 CNS.
In assay [9] the test system is TK-10 renal.
Assay [10] relates to UO-31 renal.

Molecules are shown by their SMILES. Values joined by “and” are separate entries in the source; they are usually repeats but may differ in a detail not shown here. Equal values may be shown once.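 Interpolation was linear, between the two tested concentrations surrounding the appropriate level; five concentrations were tested over 48 hours in 96-well plates. GI50 = concentration required for 50% inhibition of growth. TGI: total growth inhibition.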

In the case of `COc1ccc(C2CC(c3ccc4ccccc4c3)=NN2c2nc(O)c(C3=c4cc(OC)ccc4=NC3=O)s2)cc1` (configuration not stated), the GI50 in assay [1] was 0.124 µM; in assay [2] it was 0.0898 µM; in assay [3], 0.0641 µM; in assay [4], 0.0315 µM; in [5], 0.0226 µM; in assay [6] it was 0.0569 µM. The GI50 in assay [7] was 0.115 µM; in assay [8], 0.741 µM; in [9] it was 0.0905 µM; in [10] it was 0.202 µM. In addition, the TGI in [1] worked out at 0.3 µM; in [2] it was 0.355 µM; in [3] it was 0.388 µM; in [4] it was 0.75 µM; in [5] it was 0.0473 µM; in assay [6], 0.17 µM. The TGI in [7] was 1.35 µM; in assay [8], 4.34 µM; in assay [9], 0.371 µM; in assay [10] it was 0.414 µM.

Regarding `Cn1c(=O)c2[nH]c(CCCc3ccc([N+](=O)[O-])cc3)nc2n(C)c1=O`, the TGI in assay [1], in assay [2], in assay [3], in assay [4], in [5] and in [6] was greater than 100 µM in each case. Also, the TGI in assay [7], in [8], in [9] and in [10] was greater than 100 µM each time.

For `CCC(C)(C)[C@H](NC(=O)[C@H]1CCCCN1C)C(=O)N(C)[C@H](C[C@@H](OC(C)=O)c1nc(C(=O)N[C@@H](Cc2ccccc2)C[C@H](C)C(=O)O)cs1)C(C)C`, the GI50 in assay [1], in assay [2], in assay [3], in assay [4], in assay [5] and in [6] was less than 0.00167 µM throughout. The GI50 in assay [7] is less than 0.00167 µM; in assay [8], less than 0.00167 µM; in assay [9], 0.253 µM; in assay [10] it was 0.00873 µM. The TGI in assay [1] is 0.0113 µM; in [2], greater than 16.7 µM; in [3], greater than 16.7 µM; in assay [4], greater than 16.7 µM; in [5] it was greater than 16.7 µM; in assay [6], 0.00472 µM. The TGI in assay [7] is greater than 16.7 µM; in [8], less than 0.00167 µM; in assay [9] it was greater than 16.7 µM; in assay [10], greater than 16.7 µM.

For the compound `CS(=N)(=O)CCC(N)P(=O)(O)O` (configuration not stated), the TGI in assay [1], in assay [2], in [3], in assay [4], in [5] and in assay [6] was greater than 100 µM in each case. For the same compound, the TGI in assay [7], in [8], in assay [9] and in [10] was greater than 100 µM throughout.

Take `CCOC(=O)Nc1ccc2c(c1)N(C(=O)CCN(CC)CC)c1ccccc1S2`: the GI50 in [1] was 33.3 µM; in [2], 74.2 µM; in assay [3], 64 µM; in assay [4] it was 31.3 µM; in assay [6], 42.3 µM; in assay [7], 101 µM. For the same compound, the GI50 in assay [8] was 12.7 µM. The TGI was 58.9 µM and 99.7 µM in assay [1]; 141 µM in [2]; > 94.1 µM and 138 µM in assay [3]; greater than 94.3 µM in [4]; 57.1 µM in assay [5]; > 78.9 µM and 107 µM in assay [6]. The TGI is 99.9 µM and 178 µM in assay [7]; 48.5 µM and 43.5 µM in assay [8]; 76.6 µM in assay [9]; greater than 89.5 µM in assay [10].

With `O=C(NS(=O)(=O)c1ccc(NC[C@H]2COCCO2)c([N+](=O)[O-])c1)c1ccc(N2CCN(CC3=C(c4ccc(Cl)cc4)CC4(CCC4)CC3)CC2)cc1Oc1cnc2[nH]ccc2c1`, the GI50 in [1] is 2.36 µM; in [2] it was 2.87 µM; in [3] it was 1.93 µM; in assay [4] it was 2.29 µM; in assay [5], 2.15 µM; in [6], 1.82 µM. Further, the GI50 in assay [7] is 1.73 µM; in [8], 1.88 µM; in assay [9] it was 2.29 µM; in assay [10], 1.69 µM. The TGI in assay [1] was determined as 5.74 µM; in [2], 9.12 µM; in assay [3], 3.91 µM; in assay [4] it was 10.4 µM; in assay [5], 6.12 µM; in [6], 3.7 µM. Moreover, the TGI in assay [7] is 4.03 µM; in assay [8] it was 4.03 µM; in assay [9] it was 7.27 µM; in assay [10], 3.52 µM.

As for `O=C(Cc1ccc(Nc2ccnc(C(F)(F)F)c2)cc1)N/N=C/c1ccccc1O`, the GI50 was 11.2 µM in [1]; 3.05 µM in [2]; 2.35 µM in assay [3]; 2.94 µM in [4]; 1.37 µM in assay [5]; 0.793 µM in [6]. Further, the GI50 in assay [7] was 7.62 µM; in assay [8], 2.44 µM; in assay [9] it was 4.43 µM; in [10] it was 1.52 µM. Further, the TGI in [1] was greater than 57.9 µM; in assay [2] it was greater than 60.9 µM; in assay [3] it was greater than 24.7 µM; in assay [4], 23.7 µM; in assay [5], 10.6 µM; in [6], 25.8 µM. For the same compound, the TGI in assay [7] was greater than 83.1 µM; in [8], 12.2 µM; in assay [9], greater than 45.3 µM; in [10], greater than 26 µM.

Turning to `CCN1C(=O)N(CC)C2C1NC(=S)N2/N=C/C=C/c1ccccc1OC` (configuration not stated), the GI50 in assay [1] is 0.0295 µM; in assay [2] it was 0.0532 µM; in assay [3] it was 0.0411 µM; in assay [4], 0.0406 µM; in assay [5], 0.037 µM; in assay [6], 0.0351 µM. Besides, the GI50 is 0.0715 µM in assay [7], 0.0228 µM in assay [8], 30.9 µM in assay [9] and 0.0879 µM in [10]. The TGI in assay [1] was 0.0888 µM; in assay [2], greater than 100 µM; in assay [3], greater than 100 µM; in assay [4], greater than 100 µM; in [5], greater than 100 µM; in [6], 1.16 µM. Also, the TGI in [7] was greater than 100 µM; in assay [8] it was 0.0771 µM; in assay [9], greater than 100 µM; in assay [10] it was greater than 87.5 µM.

Turning to `CCN(CC)CC(O)COc1c(Br)c(Br)c(Br)c2c1OC(C)(C)C2` (configuration not stated), the GI50 is 4.44 µM in [1]; 3.04 µM in assay [2]; 1.91 µM in [3]; 1.92 µM in assay [4]; 3.28 µM in assay [5]; 3.47 µM in assay [6]. The GI50 was 7.68 µM in assay [7], 4.34 µM in assay [8], 4.19 µM in assay [9] and 5.82 µM in assay [10]. Also, the TGI in [1] stood at 17.3 µM; in [2], 9.64 µM; in assay [3], 5.83 µM; in assay [4] it was 4.06 µM; in assay [5] it was 11.6 µM; in assay [6] it was 16.3 µM. Further, the TGI in assay [7] turned out to be 23.8 µM; in [8] it was 16.4 µM; in assay [9], 14.9 µM; in [10], 26.5 µM.

On to `O=c1[nH]c2ccccc2n2cc3ccccc3c12`, for which the GI50 was 11.1 µM in assay [1]; 4.74 µM in assay [2]; 10.3 µM in assay [3]; 10.5 µM in [4]; 7.8 µM in assay [5]; 18.6 µM in assay [6]. Also, the GI50 in [7] is 10.4 µM; in assay [8], 5.11 µM; in assay [9], 20.6 µM; in assay [10], 12.6 µM. Moreover, the TGI is 26.7 µM in [1]; 69.4 µM in assay [2]; 25.4 µM in assay [3]; greater than 100 µM in assay [4]; greater than 100 µM in assay [5]; 36.7 µM in assay [6]. In addition, the TGI in [7] came to 35.5 µM; in assay [8], 22.2 µM; in assay [9], 36.9 µM; in [10] it was 26.6 µM.
